Measurements as given in patent US20160120915A1, “METHODS FOR MANIPULATING IMMUNE RESPONSES BY ALTERING MICROBIOTA” (NEW YORK UNIVERSITY, priority 2013, published 2016).
Counter-ions that a name gives are not always drawn.

Experiments:
ileal tissue = assay: TimeSTAT: expression of immunological markers in ileal tissue by qPCR; format: in vivo, C57BL/6J mice; conditions: 20 weeks of age
Text: C57BL/6J (Jackson Labs, Bar Harbor, Me.) mice either received no antibiotics (control, females n=5, males n=5) or continuous STAT penicillin starting at birth (STATb, females n=4, males n=5), or at weaning at 4 weeks (STATw, females n=5, males n=5). Mice were weaned at 4 weeks onto normal chow (13.2% fat, 5053 PicoLab Rodent Diet 20, LabDiet, Brentwood, Mo.).
Both STATw and STATb remained on lifelong STAT after initial exposure. Mice were sacrificed at 20 weeks of age. The terminal[1 cm] ileum without Peyer's Patches [TI-] was collected for gene expression analysis by qPCR.
(§1) Total RNA was extracted from mouse tissues using the RNeasy Mini Kit (Qiagen), according to the manufacturer's instructions. Total RNA was reverse transcribed to cDNA using the Verso™ cDNA Synthesis Kit (Thermo Scientific). To generate standards for expression analysis of each target gene, the cDNA region of interest was PCR-amplified and the PCR product was cloned into pGEM-T easy (Promega). qPCR was performed with LightCycler 480 SYBR Green I Master mix (Roche) and run in a LightCycler 480 system (Roche). Target mRNA was normalized to GAPDH mRNA as an internal control in each sample.
Both STATw and STATb remained on lifelong STAT after initial exposure. Expression of immunological markers in ileal tissue was measured by qPCP at 20 weeks of age in both female and male mice.

terminal ileum [1] = assay: PAT: ileal expression by qPCR in 6-week mice; format: in vivo, C57BL/6 mice; conditions: 6-week male mice, 3 pulses, vs control
Description: as §1
C57BL/6 mice were fed a standard diet after weaning, and exposed to 3 pulses of therapeutic dose antibiotics (Amoxicillin or Tylosin), or no antibiotics, via their drinking water, all before 6 weeks of age. Mice were sacrificed at 6 weeks of age.
The distal ileum (1 cm) without Peyer's Patches was collected from each mouse for RNA extraction and kept in RNAlater (Ambion) overnight at 4° C. Samples were stored at −80° C. until RNA extraction was performed.
Panel A: Mice were exposed to 3 pulses of antibiotics (Amoxicillin or Tylosin), or no antibiotics, via breast milk or drinking water at the indicated time points. Panel B: Male mice, including 5 Control, 4 Amoxicillin, and 6 Tylosin, were fed a normal diet. They were sacrificed at 6 weeks of age and the terminal[1 cm] ileum without Peyer's Patches [TI-] was collected.
Ileal expression of T-bet and IFN-γ [Th1], GATA3 and IL-4 [Th2], Foxp3, and TGFβ1 [Treg], and RORγt, IL-17A, and IL-17F [Th17] (Control n=5, Amoxicillin n=4, Tylosin n=6) was quantitated with qPCR and normalized by GAPDH expression. Expression of T-bet and IFNγ [Th1] (p<0.05) and IL-17A and IL-17F [Th17] […] Foxp3 and RORγt were lower in Tylosin than control. This example extends the earlier observation that continuous antibiotics affect ileal immune cell populations and effectors by showing that pulses are sufficient to produce similar effects.

terminal ileum [2] = assay: PAT: ileal expression by qPCR in 6-week mice; format: in vivo, C57BL/6 mice; conditions: 6-week male mice, 3 pulses, vs control, p<0.05

| SMILES | ileal expression of Th17 transcription factor (RORγT) (ileal tissue; female mice, STAT from weaning or birth vs control) | ileal expression of J-chain (ileal tissue; female mice, STAT vs control) | ileal expression of Reg3γ (ileal tissue; female mice, STAT vs control) | ileal expression of SAA1/SAA2 (ileal tissue; female mice, STAT vs control) | ileal expression of SSA3 (ileal tissue; female mice, STAT vs control) | ileal expression of cytokine (ileal tissue; female mice, STAT vs control) | ileal expression of cytokine TH-17A (ileal tissue; female mice, STAT vs control) | ileal expression of defensin β1 (Defb1) (ileal tissue; female mice, STAT vs control) | ileal expression of polymeric Ig receptor (pIgR) (ileal tissue; female mice, STAT vs control) | ileal expression of J-chain (ileal tissue; male mice, STAT vs control) | ileal expression of RORγt (ileal tissue; male mice, STAT vs control) | ileal expression of pIgR (ileal tissue; male mice, STAT vs control) | ileal expression of Foxp3 (terminal ileum [1]) | ileal expression of RORγt (terminal ileum [1]) | ileal expression of IFNγ [Th1] (terminal ileum [1]; p<0.05) | ileal expression of IL-17A [Th17] (terminal ileum [1]; p<0.05) | ileal expression of IL-17F [Th17] (terminal ileum [1]; p<0.05) | ileal expression of T-bet [Th1] (terminal ileum [1]; p<0.05) | ileal Relmβ expression (terminal ileum [2]) |
| --- | --- | --- | --- | --- | --- | --- | --- | --- | --- | --- | --- | --- | --- | --- | --- | --- | --- | --- | --- |
| CC1(C)S[C@@H]2[C@H](NC(=O)COc3ccccc3)C(=O)N2[C@H]1C(=O)[O-].[K+] [STAT, penicillin VK] | significant reductions | significant reductions | significant reductions | significant reductions | significant reductions | significant reductions | significant reductions | significant reductions | significant reductions | lacked differences | lacked differences | lacked differences |  |  |  |  |  |  |  |
| CC[C@H]1OC(=O)C[C@@H](O)[C@H](C)[C@@H](O[C@@H]2O[C@H](C)[C@@H](O[C@H]3C[C@@](C)(O)[C@@H](O)[C@H](C)O3)[C@H](N(C)C)[C@H]2O)[C@@H](CC=O)C[C@@H](C)C(=O)/C=C/C(C)=C/[C@@H]1CO[C@@H]1O[C@H](C)[C@@H](O)[C@@H](OC)[C@H]1OC [Tylosin, Tylosin tartrate] |  |  |  |  |  |  |  |  |  |  |  |  | lower | lower | significantly lower | significantly lower | significantly lower | significantly lower | significantly lower |
